Tests used:
Assay type in all cases: cell-based, human
[1] = system: ERK and AKT phosphorylation in ONS-76 cells; test: Immunoblotting of p-ERK/p-AKT; details: ONS-76, 1 or 2.5 µM, 2 h or 24 h
Procedure: (§1) Figure 5 C29 inhibits signalling pathway that stimulates in cell proliferation and survival. (A–C). Daoy (A), HD-MB03 (B), and ONS-76 (C) cells were treated with C29 (1 or 2.5 μM) for 2 h (A–C) or 24 h (C), n = 3. The expression of p- ERK and p-AKT, relative to ERK and AKT, (respectively) was used to describe the relative activation of the pathways. ARD1 and HSP90 were used as loading controls. Statistics were performed using Student t-test for two comparisons only or ANOVA test for multiple comparisons. * p < 0.05, ** p < 0.01. […]
(§2) Protein extraction and immunoblotting
(§3) Cells were cultured to sub confluency and lysed in 60 mM Tris‐Cl pH 6∙8, 2% SDS, 10% glycerol, 5% β‐mercapto‐ethanol, 0∙01% bromophenol blue).
(§4) Lysates were sonicated for 25 seconds, and protein amount was determined by the Pierce™ BCA Protein Assay Kit assay (Thermo Fisher). Sample proteins were reduced by heating at 95 °C for 5 min. 30 μg of proteins were separated on 10% SDS‐polyacrylamide gels and transferred on PVDF membranes in Tris‐Glycine buffer (25 mM Tris, 192 mM glycine, pH 8∙3) + 20% ethanol (v:v). Membranes were blocked with 3% BSA, at room tem‐ perature for 1 h, then immunoblotted overnight with primary antibodies diluted in 3% BSA, at 4 °C. The following primary antibodies were used: AKT (CST, #9272S), phospho‐ […]
(§5) ARD1 (homemade polyclonal rabbit antibody). Membranes were incubated with HRP‐ conjugated secondary antibodies anti‐rabbit IgG 1/5000e (Promega), at room temperature, for 1h30. After washing, the Advansta WesternBright Quantum HRP substrate (Diagom‐ ics, Blagnac, France) was used as detection reagent.

[2] = system: ERK phosphorylation in Daoy cells; test: Immunoblotting of p-ERK/p-AKT; details: 1 or 2.5 µM, 2 h
Procedure: as §1, §2, §3, §4, §5

[3] = system: ERK phosphorylation in HD-MB03 cells; test: Immunoblotting of p-ERK/p-AKT; details: HD-MB03, 1 or 2.5 µM, 2 h
Procedure: as §1, §2, §3, §4, §5

[4] = system: ONS-76 spheroids expressing DsRed on mouse cerebellar slices; test: Ex vivo cerebellar organotypic model; details: 5 µM C29 daily for five days, after fourteen days
Description: (§6) To establish ex vivo cultures of cerebellar tissues, mouse cerebellums were surgically harvested and sectioned into 250 μm thick slices using a vibrating blade microtome (RRID:SCR_016495). To comply with the 3-R rule, we used supernumerary mice (aged 12 weeks) that were destined to be sacrificed. A spheroid formed from DsRed-expressing MB cells was then grafted onto each cerebellum slice. These organotypic co-culture models were placed on inserts and maintained as previously described. After daily exposure to C29 or DMSO for 5 consecutive days, tumour growth and invasion within the cerebellum slices were analysed over time using the JuLI™ Stage imaging system and the PHERAstar® FS multiplate reader (λex 580 nm/λem 620 nm–fluorescence signal acquisition with a 15 × 15 matrix scanning mode). […]
(§7) Figure 7 C29 is effective in ex vivo cerebellar organotypic model. […] (B) Spheroid growth was monitored by measuring DsRed fluorescence (PheraStar) over 14 days (C) Statistics were performed using Student t-test. * p < 0.05, n = 5. […] Daily (14 days) images, 30 in total, of spheroid growth in each well (JULISdays) were taken (D) Spheroid growth was monitored by measuring DsRed fluorescence (PheraStar) for 14 days (E) Scale bar = 250 µM. […]

[5] = system: HD-MB03 spheroids expressing DsRed on mouse cerebellar slices; test: Ex vivo cerebellar organotypic model; details: 5 µM C29 daily for five days, after fourteen days
Description: as §6, §7

In the case of O=C(Nc1cccc(Cl)c1)Nc1nc2ccc([N+](=O)[O-])cc2s1 [C29, 1-(3-chlorophenyl)-3-(6-nitrobenzo[d]thiazol-2-yl) urea], the AKT phosphorylation [1] is reported as “inhibited”, the ERK phosphorylation [1] is reported as “inhibited” and the ERK phosphorylation [2] is reported as “inhibited ERK phosphorylation”. For the same compound, the ERK phosphorylation [3] was “inhibited ERK phosphorylation”, the “Reduction of tumour expansion” value [4] was 28.9 ± 4.5% and the “Reduction of tumour expansion” value [5] was 34.4 ± 8.8%.
